Structures can show the parent of a compound that is named as a salt.

Test [1] concerns Purkinje fiber of the right ventricular free wall. Description: Influence on Myocardial Action Potential Duration Time (APD75). The following applies: Canis lupus familiaris, 20 min, 20 minutes' incubation, 1 Hz, 37° C.; for percent prolongation of action potential duration (APD75) at 1 µg/mL: Dose 1.0 (μg, ml); for percent prolongation of action potential duration (APD75) at 3 µg/mL: Dose 3.0 (μg, ml); for percent prolongation of action potential duration (APD75) at 10 µg/mL: Dose 10.0 (μg, ml). The test is classed as cell-based, hybrid adult dog. Here is the method: To a hybrid adult dog, 30 mg/kg of pentobarbital was administered through a vein, and after being anesthetized, the heart was removed. Afterward, the right ventricular free wall of the heart was cut and taken out in a Tyrode solution.
The taken right ventricular free wall was fixed in an incubator at 37° C., and a nutritional solution (20 ml of the Tyrode solution) was refluxed.
In this isolated condition, myocardial action potential duration times (APD75) were measured before and after the administration of the respective compounds prepared in the above examples in Table A and d-sotalol as a control medicine, and APD75 (%) was calculated from the measured results in accordance with the formula: […]
A: APD75 before administration
B: APD75 after administration
Here, APD75 was measured as follows: A field stimulation of 1 Hz was given to the right ventricular free wall, and any variation of an action potential was depicted on an oscilloscope via a glass microelectrode (10 to 20 M.OMEGA.) thrust into a Purkinje fiber of the free wall and via an amplifier. Afterward, a waveform on the oscilloscope was analyzed by the use of a computer, and the time of from a point of the action potential generation to a point of 75% repolarization was measured. This measured time was regarded as the myocardial action potential duration time (APD75).
The compounds and d-sotalol shown in Table A were separately added to the refluxing nutritional solution (20 ml), and after 20 minutes' incubation, APD75 after the administration was calculated from the variation of the myocardial action potential duration time.
Incidentally, this test was carried out in accordance with a Sato et al's method [H. Sato, K. Hashimoto, Arzneimeittel Forschung, 34 (1), 3a, 376-380 (1984)].

In test [2] the test system is ventricular muscle (right ventricle). Description: Influence on Ventricular Muscle Refractory Period (ERP). Format: in vivo, mongrel adult dog. Conditions: Canis lupus familiaris, iv, anesthetized dog, read-out: ERP (%; extensibility of refractory period); for change in vivo at 0.1 mg/kg: Dose 0.1 mg/kg i.v.; for change in vivo at 0.3 mg/kg: Dose 0.3 mg/kg i.v.; for change in vivo at 1 mg/kg: Dose 1.0 mg/kg i.v.; for change in vivo at 3 mg/kg: Dose 3.0 mg/kg i.v. On the procedure:
Refractory periods were measured in the following manner before and after each of the compounds and d-sotalol shown an Table A was separately administered to a vein or a duodenum, and ERP (%; extensibility of refractory period) was calculated from the measured values in accordance with the following formula: […]
W: Refractory period after administration
Y: Refractory period before administration
To a mongrel adult dog, 30 mg/kg of pentobarbital was administered intravenously, and after being anesthetized, a pair of silver-silver chloride electrodes separated by 3 mm was sewn on an opened right ventricule, and electrical stimulation was given at an interval of 400 msec at a duration time of 4 msec under a current twice as much as the threshold. Afterward, a small amount of alcohol was injected into a sinus artery in order to extinguish a pacemaker activity, and the ventricular refractory period (ERP) was measured under ventricule pacing.
That is, 1 train comprised 10 stimulations, and an interval between two of the trains was usually 400 msec. At the time of the refractory period measurement, however, the above interval was shortened every 10 smec, and the interval between the trains at the time when reaction to the first stimulation of the train disappeared was regarded as the refractory period.
In this case, the electrical stimulation was fed in accordance with a program by a heart stimulation device (Diamedical Co., Ltd.; DHM-226-3).

In test [1], `Cn1c(N2CCN(CCCOc3ccccc3C#N)CC2)cc(=O)n(C)c1=O` [Compound 16] showed a percent prolongation of action potential duration (APD75) at 1 µg/mL of 6%, a percent prolongation of action potential duration (APD75) at 3 µg/mL of 14% and a percent prolongation of action potential duration (APD75) at 10 µg/mL of 23%. For the same compound, in test [2], the change in vivo at 0.1 mg/kg turned out to be 0%, the change in vivo at 0.3 mg/kg worked out at 0%, the change in vivo at 1 mg/kg stood at 6.7% and the change in vivo at 3 mg/kg amounted to 10%.

`Cn1c(N2CCN(CCOc3ccccc3)CC2)cc(=O)n(C)c1=O` [Compound 65, 1,3-dimethyl-6-[4-(2-phenoxyethyl)piperazin-1-yl]-2,4(1H,3H)-pyrimidinedione.hydrochloride]: in test [1], the percent prolongation of action potential duration (APD75) at 3 µg/mL was 14% and the percent prolongation of action potential duration (APD75) at 10 µg/mL was found to be 17%. Moreover, in test [2], the change in vivo at 0.1 mg/kg was determined as 0%, the change in vivo at 0.3 mg/kg is 0%, the change in vivo at 1 mg/kg is 0% and the change in vivo at 3 mg/kg stood at 0%.

As for `Cn1c(N2CCN(CCCOc3ccc(NS(C)(=O)=O)cc3Cl)CC2)cc(=O)n(C)c1=O` [Compound 111, 1,3-dimethyl-6-[4-(3-[2-chloro-4-methanesulfonamidophenoxy]propyl)piperazin-1-yl]-2,4(1H,3H)-pyrimidinedione.hydrochloride], in test [1], the percent prolongation of action potential duration (APD75) at 3 µg/mL amounted to 19% and the percent prolongation of action potential duration (APD75) at 10 µg/mL was found to be 36%. In test [2], the change in vivo at 0.1 mg/kg is 0%, the change in vivo at 0.3 mg/kg is 2.4%, the change in vivo at 1 mg/kg came out at 8.6% and the change in vivo at 3 mg/kg turned out to be 15.2%.

In test [1], `CC(=O)c1ccccc1OCCCN1CCN(c2cc(=O)n(C)c(=O)n2C)CC1` [Compound 17, 1,3-dimethyl-6-[4-(3-[2-acetylphenoxy)propyl)piperazin-1-yl]-2,4(1H,3H)-pyrimidinedione] displayed a percent prolongation of action potential duration (APD75) at 1 µg/mL of 28%, a percent prolongation of action potential duration (APD75) at 3 µg/mL of 43% and a percent prolongation of action potential duration (APD75) at 10 µg/mL of 59%. Further, in test [2], the change in vivo at 0.1 mg/kg was 3.5%, the change in vivo at 0.3 mg/kg was 8.3%, the change in vivo at 1 mg/kg is 13.5% and the change in vivo at 3 mg/kg was found to be 17.3%.

In test [1], `Cn1c(NCCN(CCO)CCCc2ccccc2)cc(=O)n(C)c1=O` [Compound 120, 1,3-dimethyl-6-[2-(N-[2-hydroxyethyl]-3-phenylpropylamino)ethylamino]-2,4(1H,3H)-pyrimidinedione.oxalate] yielded a percent prolongation of action potential duration (APD75) at 1 µg/mL of 6%, a percent prolongation of action potential duration (APD75) at 3 µg/mL of 14% and a percent prolongation of action potential duration (APD75) at 10 µg/mL of 26%.

In test [1], `Cn1c(N2CCN(CCCOc3ccccc3C(=O)C3CCCC3)CC2)cc(=O)n(C)c1=O` [Compound 39] displayed a percent prolongation of action potential duration (APD75) at 3 µg/mL of 26% and a percent prolongation of action potential duration (APD75) at 10 µg/mL of 48%.

Take `Cn1c(N2CCN(CCCOc3ccc(C(=O)c4ccccc4)cc3F)CC2)cc(=O)n(C)c1=O` [Compound 58]: in test [1], the percent prolongation of action potential duration (APD75) at 1 µg/mL stood at 19%, the percent prolongation of action potential duration (APD75) at 3 µg/mL was 29% and the percent prolongation of action potential duration (APD75) at 10 µg/mL amounted to 36%.

In test [1], `CCN(CCCc1ccccc1)CCNc1cc(=O)n(C)c(=O)n1C` [Compound 121, 1,3-dimethyl-6-[2-(N-ethyl-3-phenylpropylamino)ethylamino]-2,4(1H,3H)-pyrimidinedione.oxalate] displayed a percent prolongation of action potential duration (APD75) at 1 µg/mL of 9%, a percent prolongation of action potential duration (APD75) at 3 µg/mL of 14% and a percent prolongation of action potential duration (APD75) at 10 µg/mL of 16%.

On to `Cn1c(N2CCN(CCCOc3ccc(Cl)cc3C(=O)c3ccccn3)CC2)cc(=O)n(C)c1=O` [Compound 52], for which, in test [1], the percent prolongation of action potential duration (APD75) at 1 µg/mL stood at 9%, the percent prolongation of action potential duration (APD75) at 3 µg/mL was 14% and the percent prolongation of action potential duration (APD75) at 10 µg/mL was found to be 18%.

Values taken from patent US5332739A, “Pyrimidinedione derivatives and antiarrhythmic agents containing same” (Mitsui Toatsu Chemicals, Incorporated, priority 1990, dated 1994).
